How the values were obtained:
[1] = Cytotoxicity against human U87MG cells assessed as cell viability at 1 uM after 24 hrs by WST1 assay; type: functional, U-87MG ATCC; settings: U-87 MG, read-out: Activity
MV4-11 = test: Cytotoxicity against human MV4-11 cells assessed as cell viability at 1 uM after 24 hrs by WST1 assay; type: functional; settings: MV4-11, 24 h, read-out: Activity
MDA-MB-231 = test: Cytotoxicity against human MDA-MB-231 cells assessed as cell viability at 1 uM after 24 hrs by WST1 assay; type: functional; settings: MDA-MB-231, 24 h, read-out: Activity
MCF7 = test: Cytotoxicity against human MCF7 cells assessed as cell viability at 1 uM after 24 hrs by WST1 assay; type: functional; settings: MCF7, 24 h, read-out: Activity
[2] = Cytotoxicity against rat L6 cells assessed as cell viability at 1 uM after 24 hrs by WST1 assay; type: cell-based; settings: read-out: Activity
[3] = Cytotoxicity against mouse NIH/3T3 cells assessed as cell viability at 1 uM after 24 hrs by WST1 assay; type: cell-based, NIH3T3; settings: read-out: Activity

Structure (SMILES) | viability at 1 µM [1] | viability at 1 µM (MV4-11) | viability at 1 µM (MDA-MB-231) | viability at 1 µM (MCF7) | viability at 24 h, 1 µM [2] | viability at 24 h, 1 µM [3]
CNc1ccccc1-c1cnc2[nH]nc(-c3ccc(OC)cc3)c2c1 | 100% | 86% | 114% | 101% | 109% | 106%
COc1ccc(-c2n[nH]c3ncc(-c4ccc(F)cc4N)cc23)cc1 | 94% | 94% | 95% | 97% | 104% | 104%
COC(=O)c1cccc(N)c1-c1cnc2[nH]nc(-c3ccc(OC)cc3)c2c1 | 102% | 90% | 110% | 89% | 105% | 101%
Cc1n[nH]c2ncc(-c3ccc(Cl)cc3N)cc12 | 99% | 91% | 107% | 102% | 102% | 103%
COc1ccc(-c2n[nH]c3ncc(-c4ccccc4N)cc23)cc1 | 94% | 89% | 101% | 102% | 108% | 94%
COc1ccc(-c2n[nH]c3ncc(-c4c(N)cccc4[N+](=O)[O-])cc23)cc1 | 104% | 93% | 123% | 97% | 110% | 102%
COc1ccc(-c2n[nH]c3ncc(-c4cccc(F)c4N)cc23)cc1 | 94% | 82% | 109% | 100% | 100% | 108%
COc1ccc(-c2n[nH]c3ncc(-c4ccccc4NCc4ccccc4)cc23)cc1 | 95% | 97% | 109% | 98% | 102% | 99%
Nc1cc(Cl)ccc1-c1cnc2[nH]nc(-c3ccccc3)c2c1 | 101% | 85% | 105% | 103% | 96% | 111%
COc1ccc(-c2n[nH]c3ncc(-c4cc([N+](=O)[O-])ccc4N)cc23)cc1 | 97% | 92% | 114% | 102% | 92% | 99%
COc1ccc(-c2n[nH]c3ncc(-c4ccccc4NC(=O)NCc4ccccc4)cc23)cc1 | 94% | 104% | 101% | 99% | 104% | 94%
COc1ccc(-c2n[nH]c3ncc(-c4cc(Br)ccc4N)cc23)cc1 | 100% | 82% | 112% | 88% | 104% | 108%
